Laboratory results reported in PMC8006202, “Influence of YES1 Kinase and Tyrosine Phosphorylation on the Activity of OCT1” (Frontiers in Pharmacology, 2021).
Read-outs that look alike come from different tables or passages of the source.

What was measured:
human OCT1 (hOCT1) = biological target: T1, human OCT1 (hOCT1) (Homo sapiens, UniProt O15245); assay: Cellular uptake of [14C] TEA or [14C] metformin in HEK293 cells overexpressing hOCT1, with or without inhibitor; type: cell-based; conditions: for OCT1 function (TEA transport) in presence of TKI: HEK293-hOCT1, TKI 10 µM, Figure 2D
T1 construct: expressed in transfected cells
T1 sequence (O15245 1-554): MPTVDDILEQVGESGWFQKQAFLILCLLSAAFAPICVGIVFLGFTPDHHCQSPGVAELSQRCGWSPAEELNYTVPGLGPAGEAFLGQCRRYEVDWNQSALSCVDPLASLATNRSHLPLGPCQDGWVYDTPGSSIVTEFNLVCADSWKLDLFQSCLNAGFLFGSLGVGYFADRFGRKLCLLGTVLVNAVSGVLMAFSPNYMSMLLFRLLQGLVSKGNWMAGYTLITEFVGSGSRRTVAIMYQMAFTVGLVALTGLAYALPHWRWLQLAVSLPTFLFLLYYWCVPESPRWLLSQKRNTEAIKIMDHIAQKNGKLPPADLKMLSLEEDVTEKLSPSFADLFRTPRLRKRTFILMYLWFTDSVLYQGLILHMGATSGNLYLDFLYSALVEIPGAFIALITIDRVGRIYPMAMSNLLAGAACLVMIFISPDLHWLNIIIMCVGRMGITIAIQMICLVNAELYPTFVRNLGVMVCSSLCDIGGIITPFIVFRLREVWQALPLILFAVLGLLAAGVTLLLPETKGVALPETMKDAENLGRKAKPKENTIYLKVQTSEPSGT
Experimental: (§1) Human embryonic kidney (HEK293) cells were obtained from the American Type Culture Collection (ATCC, Manassas, VA). HEK293 cells stably transfected with mouse OCT1 (mOCT1) or human OCT1 (hOCT1) were cultured in Dulbecco’s Modified Eagle Media (DMEM) media supplemented with 10% fetal bovine serum (FBS) and grown at 37°C in a humidified incubator containing 5% CO2. Radiolabeled [^14C] TEA and [^14C] metformin were obtained from American Radiochemicals (St. Louis, MO). Cellular uptake assays were performed 48 h following transient transfection by Lipofectamine 3000 Transfection Reagent (Thermo Fisher Scientific, Waltham, MA). ON-TARGETplus Human YES1 siRNA was obtained from Dharmacon (Lafayette, CO). RNA extraction kits were obtained from Omega Bio-tek (Norcross, GA).
(§2) The results were normalized to uptake values in cells stably transfected with an empty vector treated with vehicle alone (Supplementary Figure S1). Prior to cellular accumulation experiments, cells were grown to 90% confluence on poly-lysine coated multi-well plates. For uptake studies, cells were rinsed with warm PBS and incubated in the presence of a vehicle or inhibitor, prepared in serum and phenol red-free DMEM media for 15 min. Subsequently, media was removed followed by the addition of radiolabeled TEA and metformin along with inhibitor, and cellular uptake was measured after a 15-min co-incubation period. Total radioactivity originating from TEA and metformin was determined using liquid scintillation counting after lysing the cells with 1 N NaOH, a neutralizing step with 2 M HCl. A Pierce protein assay (Thermo Fisher Scientific, Waltham, MA) was used to normalize radioactivity readings to account for variation in cell number between samples.

OCT3 = biological target: T2, OCT3 (Homo sapiens, UniProt O75751); assay: OCT3 transport inhibition by TKIs (Supplementary Figure S2); type: cell-based
T2 sequence (O75751 1-556): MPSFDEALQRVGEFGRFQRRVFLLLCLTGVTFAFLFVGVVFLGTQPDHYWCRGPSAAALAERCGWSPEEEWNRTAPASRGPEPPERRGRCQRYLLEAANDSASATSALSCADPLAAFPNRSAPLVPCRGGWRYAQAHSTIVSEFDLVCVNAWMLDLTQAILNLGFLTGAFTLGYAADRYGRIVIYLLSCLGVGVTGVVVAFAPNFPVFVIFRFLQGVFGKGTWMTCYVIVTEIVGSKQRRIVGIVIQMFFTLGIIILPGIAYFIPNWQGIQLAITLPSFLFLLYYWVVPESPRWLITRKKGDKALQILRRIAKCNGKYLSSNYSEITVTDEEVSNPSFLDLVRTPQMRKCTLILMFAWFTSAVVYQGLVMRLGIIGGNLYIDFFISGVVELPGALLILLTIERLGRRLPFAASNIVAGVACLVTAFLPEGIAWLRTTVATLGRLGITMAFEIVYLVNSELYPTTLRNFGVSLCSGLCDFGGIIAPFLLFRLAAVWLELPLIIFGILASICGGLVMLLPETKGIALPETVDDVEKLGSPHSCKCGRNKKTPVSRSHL
Experimental: as §2, with “Uptake assays were performed with radiolabeled TEA (2 µM) or metformin (5 µM) as described previously ([Sprowl et al., 2013]; [Pabla et al., 2015]) in the presence or absence of TKIs. The results” for “The results”

OCT1 (mouse and human) = assay: Dose-response OCT1 uptake inhibition, summarised across mOCT1 and hOCT1 models and test substrates; type: cell-based; conditions: mouse and human, probe [14C] TEA (2 µM) or [14C] metformin (5 µM); range over mOCT1/hOCT1 models and test substrates
Experimental: as §1
as §2, with “Uptake assays were performed with radiolabeled TEA (2 µM) or metformin (5 µM) as described previously ([Sprowl et al., 2013]; [Pabla et al., 2015]) in the presence or absence of TKIs. The results” for “The results”

OCT1 [1] = assay: as above; type: cell-based, human and mouse; conditions: for OCT1 inhibition: Yes/No; for OCT1 function in dose-response experiments: species-independent, regardless of test substrate
Experimental: as §1
as §2, with “Uptake assays were performed with radiolabeled TEA (2 µM) or metformin (5 µM) as described previously ([Sprowl et al., 2013]; [Pabla et al., 2015]) in the presence or absence of TKIs. The results” for “The results”

OCT1 [2] = test system: OCT1; design: method as in Furmanski et al., 2013; conditions: ref Furmanski et al., 2013; cited from earlier work
YES1 / hOCT1 = assay: Chemical genetics: hOCT1 uptake assay in HEK293 cells transfected with wild-type YES1 or T348I gatekeeper mutant, then dasatinib; type: cell-based, human; conditions: HEK293-hOCT1, dasatinib 1 µM 15 min, [14C] TEA uptake
Experimental: as §2

hepatic OCT1 [3] = biological target: T3, hepatic OCT1 (Mus musculus, UniProt O08966); assay: Plasma isobutyryl L-carnitine (IBC) after a single oral dose of dasatinib in mice; type: in vivo; design: from tissue; host or cells: liver of wild-type mice, in vivo; conditions: single oral dose 15 mg/kg
T3 sequence (O08966 1-556): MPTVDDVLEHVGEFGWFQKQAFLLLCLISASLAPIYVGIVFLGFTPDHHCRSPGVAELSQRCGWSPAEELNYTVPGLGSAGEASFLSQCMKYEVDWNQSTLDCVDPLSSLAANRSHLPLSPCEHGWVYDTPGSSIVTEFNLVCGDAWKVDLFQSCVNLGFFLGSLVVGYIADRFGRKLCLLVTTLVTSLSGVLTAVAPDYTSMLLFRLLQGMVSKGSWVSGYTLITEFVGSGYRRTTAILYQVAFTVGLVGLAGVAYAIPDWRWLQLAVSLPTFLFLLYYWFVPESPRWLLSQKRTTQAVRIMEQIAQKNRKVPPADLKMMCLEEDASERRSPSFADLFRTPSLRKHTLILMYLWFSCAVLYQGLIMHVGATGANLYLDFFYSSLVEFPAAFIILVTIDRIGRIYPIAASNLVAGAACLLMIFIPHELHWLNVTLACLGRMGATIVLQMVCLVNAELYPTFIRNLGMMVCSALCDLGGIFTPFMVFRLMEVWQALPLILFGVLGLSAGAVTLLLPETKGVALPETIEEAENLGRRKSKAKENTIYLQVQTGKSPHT

OCT2 (hOCT2) [4] = biological target: T4, OCT2 (hOCT2) (Homo sapiens, UniProt O15244); conditions: cited from earlier work; for OCT2 inhibition: Yes/No, TKIs previously found to inhibit OCT2
T4 construct: expressed in transfected cells; host or cells: overexpressing cell model
T4 sequence (O15244 1-555): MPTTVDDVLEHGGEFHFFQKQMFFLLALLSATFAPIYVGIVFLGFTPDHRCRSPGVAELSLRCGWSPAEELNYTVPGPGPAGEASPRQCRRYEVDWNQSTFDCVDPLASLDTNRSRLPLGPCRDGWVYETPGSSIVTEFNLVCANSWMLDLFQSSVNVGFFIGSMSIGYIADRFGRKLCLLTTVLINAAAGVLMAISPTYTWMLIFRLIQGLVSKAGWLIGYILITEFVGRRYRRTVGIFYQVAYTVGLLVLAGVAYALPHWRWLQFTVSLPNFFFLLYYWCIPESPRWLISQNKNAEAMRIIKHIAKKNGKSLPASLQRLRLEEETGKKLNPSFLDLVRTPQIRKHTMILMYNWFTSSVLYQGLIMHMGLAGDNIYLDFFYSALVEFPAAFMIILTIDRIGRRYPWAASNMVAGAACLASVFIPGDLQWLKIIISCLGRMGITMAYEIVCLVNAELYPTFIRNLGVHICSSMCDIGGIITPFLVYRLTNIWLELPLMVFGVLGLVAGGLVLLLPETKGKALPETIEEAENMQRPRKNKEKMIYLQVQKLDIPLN

mouse OCT1 (mOCT1) = biological target: T5, mouse OCT1 (mOCT1) (Mus musculus, UniProt O08966); assay: Cellular uptake of [14C] TEA in HEK293 cells overexpressing mOCT1, with or without inhibitor; type: cell-based
T5 construct: expressed in transfected cells
T5 sequence (O08966 1-556): T3 sequence (O08966 1-556)
Experimental: as §1
as §2, with “Uptake assays were performed with radiolabeled TEA (2 µM) or metformin (5 µM) as described previously ([Sprowl et al., 2013]; [Pabla et al., 2015]) in the presence or absence of TKIs. The results” for “The results”

hepatic OCT1 [5] = biological target: T3, hepatic OCT1; conditions: OCT1/2-deficient vs wild-type mice, [14C] TEA 0.2 mg/kg i.v.
OCT2 (hOCT2) [6] = biological target: T4, OCT2 (hOCT2); assay: OCT2 transport inhibition; type: cell-based; conditions: models overexpressing hOCT2, Supplementary Figure S4D
Experimental: as §2, with “Uptake assays were performed with radiolabeled TEA (2 µM) or metformin (5 µM) as described previously ([Sprowl et al., 2013]; [Pabla et al., 2015]) in the presence or absence of TKIs. The results” for “The results”

YES1 = conditions: read-out: YES1 Kd; ref Klaeger et al., 2017; KINOMEscan data—HMS LINCS Project, 2020; cited from earlier work

Structure (SMILES)	OCT1 function (TEA transport) in presence of TKI (human OCT1 (hOCT1))	OCT3 function in presence of TKI (OCT3)	IC50 at 15 min (OCT1 (mouse and human))	OCT1 inhibition (OCT1 [1])	OCT1 function in dose-response experiments (OCT1 [1])	OCT2 inhibition (OCT2 (hOCT2) [4]; ref Sprowl et al., 2016)	further results
Cc1nc(Nc2ncc(C(=O)Nc3c(C)cccc3Cl)s2)cc(N2CCN(CCO)CC2)n1 [Dasatinib, dasatinib]	inhibit OCT1 function	potently inhibiting	[…]	Yes	potently inhibited	Yes	transported substrate of OCT1 (OCT1 [2]): not themselves transported substrate; dasatinib-mediated OCT1 inhibition in cells with TKI-resistant YES1 (T348I gatekeeper) mutant (YES1 / hOCT1): rescue; dasatinib-mediated OCT1 inhibition in cells with YES1 wild-type construct (YES1 / hOCT1): retained sensitivity; plasma levels of IBC after dasatinib, OCT1/2-deficient or OCT1/2/MATE1-deficient mice (hepatic OCT1 [3]): not; plasma levels of IBC after dasatinib, wild-type mice (hepatic OCT1 [3]; wild-type mice): transient, statistically significant increase; OCT2 inhibition, co-incubation designs (OCT2 (hOCT2) [4]; ref Minematsu and Giacomini, 2011): only a weak inhibitor; OCT2 function, pre-incubation conditions (OCT2 (hOCT2) [4]; ref Sprowl et al., 2016): potently inhibits; IC50 (mouse OCT1 (mOCT1); HEK293-mOCT1, [14C] TEA 2 µM, 15 min pre-incubation + 15 min co-incubation, read-out: IC50, mOCT1-mediated transport of TEA): […]; Ki (mouse OCT1 (mOCT1); read-out: inhibition constant (Ki), Dixon plot, mOCT1): 870 nM
CC[N+](CC)(CC)CC [TEA, tetraethylammonium]							hepatic uptake of TEA (liver-to-plasma concentration ratio) in OCT1/2-deficient mice (hepatic OCT1 [5]): dramatically reduced
Cc1cc2cc(C(=O)c3cnn(-c4cnc(Oc5c(F)cccc5F)cc4C)c3N)[nH]c2cc1NS(C)(=O)=O [CH6953755]							IC50 (human OCT1 (hOCT1); HEK293-hOCT1, [14C] TEA 2 µM, 15 min pre-incubation + 15 min co-incubation, read-out: IC50, hOCT1-mediated transport of TEA): 2760 nM; IC50 (human OCT1 (hOCT1); HEK293-hOCT1, [14C] metformin 5 µM, read-out: IC50, hOCT1-mediated transport of metformin): 2310 nM; inhibition of hOCT2-mediated transport (OCT2 (hOCT2) [6]): also observed; inhibition of mOCT1-mediated transport (mouse OCT1 (mOCT1); models overexpressing mOCT1, Supplementary Figure S4C): also observed
C=CC(=O)N1CCC[C@@H](n2nc(-c3ccc(Oc4ccccc4)cc3)c3c(N)ncnc32)C1 [Ibrutinib, ibrutinib]	inhibit OCT1 function	no influence	890 to 1180 nM	Yes	potently inhibited	Yes	
COc1cc2c(Nc3ccc(Br)cc3F)ncnc2cc1OCC1CCN(C)CC1 [Vandetanib, vandetanib]	inhibit OCT1 function		1350 to 9050 nM	Yes	potently inhibited	Yes	Kd (YES1): 120 nM

Further lines, with some results ahead:

OCT1 function (TEA transport) in presence of TKI (human OCT1 (hOCT1))	OCT3 function in presence of TKI (OCT3)	Structure (SMILES)	IC50 at 15 min (OCT1 (mouse and human))	OCT1 inhibition (OCT1 [1])	OCT1 function in dose-response experiments (OCT1 [1])	OCT2 inhibition (OCT2 (hOCT2) [4]; ref Sprowl et al., 2016)	further results
inhibit OCT1 function	potently inhibiting	CCN(CC)CCNC(=O)c1c(C)[nH]c(/C=C2\C(=O)Nc3ccc(F)cc32)c1C [sunitinib]					
inhibit OCT1 function	no influence	COc1cc(Nc2c(C#N)cnc3cc(OCCCN4CCN(C)CC4)c(OC)cc23)c(Cl)cc1Cl [bosutinib]					
not		CS(=O)(=O)CCNCc1ccc(-c2ccc3ncnc(Nc4ccc(OCc5cccc(F)c5)c(Cl)c4)c3c2)o1 [Lapatinib, lapatinib]		No		No	
inhibit OCT1 function	no influence	CCc1nc(C(N)=O)c(Nc2ccc(N3CCC(N4CCN(C)CC4)CC3)c(OC)c2)nc1NC1CCOCC1 [Gilteritinib, gilteritinib]	10 to 20 nM	Yes	potently inhibited	Yes	
